Measurements taken from US8940724B2, “Quinoline derivitives and their uses” (Amgen Inc., priority 2009, dated 2015).

System: model of systemic lupus erythematosis
Assay: not given
Settings: in vivo; cited from earlier work

Row | Structure (SMILES) | onset of disease in a model of systemic lupus erythematosis
1 | O=C1NC(=O)/C(=C\c2ccc3nccnc3c2)S1 [AS 605240] | delay onset of disease

System: mouse model of rheumatoid arthritis
Assay: not given
Settings: in vivo; cited from earlier work

Row | Structure (SMILES) | efficacy in a mouse model of rheumatoid arthritis
2 | O=C1NC(=O)/C(=C\c2ccc3nccnc3c2)S1 [AS 605240] | efficacious

Molecular target: T1, PI3Kδ (Homo sapiens, UniProt O00329)
T1 construct: Full length p110 subunits of PI3k α, β and δ, N-terminally labeled with polyHis tag; polyHis (N); made in house; host or cells: Sf9 insect cells (baculovirus)
T1 sequence (O00329 whole entry): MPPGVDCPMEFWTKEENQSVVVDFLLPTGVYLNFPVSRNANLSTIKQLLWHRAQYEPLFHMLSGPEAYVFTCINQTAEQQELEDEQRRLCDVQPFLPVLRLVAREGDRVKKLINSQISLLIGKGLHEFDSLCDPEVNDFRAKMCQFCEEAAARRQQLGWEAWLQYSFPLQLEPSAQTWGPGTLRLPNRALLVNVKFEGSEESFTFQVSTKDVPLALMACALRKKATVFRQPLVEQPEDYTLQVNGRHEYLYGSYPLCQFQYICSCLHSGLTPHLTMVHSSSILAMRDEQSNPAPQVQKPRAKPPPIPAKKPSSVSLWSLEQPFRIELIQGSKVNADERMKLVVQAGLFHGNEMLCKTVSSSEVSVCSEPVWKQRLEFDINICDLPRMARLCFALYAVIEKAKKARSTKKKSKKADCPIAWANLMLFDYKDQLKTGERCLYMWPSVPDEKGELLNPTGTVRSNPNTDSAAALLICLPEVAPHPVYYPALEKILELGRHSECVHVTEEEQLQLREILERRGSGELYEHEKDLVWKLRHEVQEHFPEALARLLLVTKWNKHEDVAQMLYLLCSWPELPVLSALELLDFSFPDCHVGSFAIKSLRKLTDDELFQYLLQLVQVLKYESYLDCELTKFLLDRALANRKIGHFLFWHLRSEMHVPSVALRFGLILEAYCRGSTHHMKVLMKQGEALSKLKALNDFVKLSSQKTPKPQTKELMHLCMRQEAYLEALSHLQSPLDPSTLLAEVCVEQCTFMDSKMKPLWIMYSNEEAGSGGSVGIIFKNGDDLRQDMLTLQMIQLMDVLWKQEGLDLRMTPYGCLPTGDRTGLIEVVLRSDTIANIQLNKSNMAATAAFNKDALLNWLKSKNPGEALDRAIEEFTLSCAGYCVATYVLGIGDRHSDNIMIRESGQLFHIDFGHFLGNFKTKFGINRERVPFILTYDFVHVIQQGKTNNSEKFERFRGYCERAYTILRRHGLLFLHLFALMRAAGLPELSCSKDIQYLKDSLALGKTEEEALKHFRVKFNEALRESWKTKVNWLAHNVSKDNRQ
T1 sequence (P27986 whole entry partner): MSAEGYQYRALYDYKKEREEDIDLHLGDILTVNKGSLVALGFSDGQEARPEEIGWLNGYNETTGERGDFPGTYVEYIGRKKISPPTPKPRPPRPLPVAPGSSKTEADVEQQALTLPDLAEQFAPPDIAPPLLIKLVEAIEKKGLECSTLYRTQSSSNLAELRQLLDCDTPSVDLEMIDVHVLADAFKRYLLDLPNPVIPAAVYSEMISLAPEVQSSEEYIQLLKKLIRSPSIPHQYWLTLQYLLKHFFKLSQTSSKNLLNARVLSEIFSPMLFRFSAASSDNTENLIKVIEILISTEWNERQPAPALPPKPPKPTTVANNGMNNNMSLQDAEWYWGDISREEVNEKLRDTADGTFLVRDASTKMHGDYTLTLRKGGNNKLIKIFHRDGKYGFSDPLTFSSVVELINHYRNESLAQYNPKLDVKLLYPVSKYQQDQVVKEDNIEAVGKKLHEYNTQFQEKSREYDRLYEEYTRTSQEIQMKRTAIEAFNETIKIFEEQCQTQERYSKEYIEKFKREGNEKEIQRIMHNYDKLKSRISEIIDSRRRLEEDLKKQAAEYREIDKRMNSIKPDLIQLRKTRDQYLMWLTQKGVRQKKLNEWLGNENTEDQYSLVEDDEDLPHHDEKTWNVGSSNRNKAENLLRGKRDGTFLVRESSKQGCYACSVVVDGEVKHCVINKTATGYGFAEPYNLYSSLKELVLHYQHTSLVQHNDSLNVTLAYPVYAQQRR
Assay: PI3Kδ Alphascreen assay
Assay type: biochemical
Settings: not given

Row | Structure (SMILES) | Ki
3 | Cc1ccc(-c2nc3cc(F)cc(F)c3c(Nc3cc(N4CCOCC4)cnc3N3CCOCC3)c2C)cn1 [N-(2,5-di-4-morpholinyl-3-pyridinyl)-5,7-difluoro-3-methyl-2-(6-methyl-3-pyridinyl)-4-quinolinamine] | 18 nM
4 | Cc1ccnc(-c2nc3cc(F)cc(F)c3c(Nc3cc(N4CCOCC4)cnc3N3CCOCC3)c2C)c1 [N-(2,5-di-4-morpholinyl-3-pyridinyl)-5,7-difluoro-3-methyl-2-(4-methyl-2-pyridinyl)-4-quinolinamine] | 237 nM
5 | Cc1c(N2CCC[C@@H]2C(=O)OC(C)(C)C)nc2cc(F)cc(F)c2c1Nc1cncc(N2CCOCC2)c1 [tert-butyl 1-(5,7-difluoro-3-methyl-4-((5-(4-morpholinyl)-3-pyridinyl)amino)-2-quinolinyl)-D-prolinate] | 18 nM
6 | Cc1c(-c2ccc(N3CCOCC3)nc2)nc2cc(F)cc(F)c2c1Nc1cncc(N2CCOCC2)c1 [5,7-difluoro-3-methyl-N-(5-(4-morpholinyl)-3-pyridinyl)-2-(6-(4-morpholinyl)-3-pyridinyl)-4-quinolinamine] | 444 nM
7 | COc1cncc(-c2nc3cc(F)cc(F)c3c(Nc3cncc(N4CCOCC4)c3)c2C)c1 [5,7-difluoro-2-(5-methoxy-3-pyridinyl)-3-methyl-N-(5-(4-morpholinyl)-3-pyridinyl)-4-quinolinamine] | 37.4 nM
8 | Cc1c(-c2ccccn2)nc2cnccc2c1Nc1cc(N2CCOCC2)ccc1N1CCOCC1 [N-(2,5-di-4-morpholinylphenyl)-3-methyl-2-(2-pyridinyl)-1,7-naphthyridin-4-amine] | 876 nM
9 | Cc1c(N2CCN(C(=O)OC(C)(C)C)[C@H](C)C2)nc2cc(F)cc(F)c2c1Nc1cncc(N2CCOCC2)c1 [tert-butyl (2R)-4-(5,7-difluoro-3-methyl-4-((5-(4-morpholinyl)-3-pyridinyl)amino)-2-quinolinyl)-2-methyl-1-piperazinecarboxylate] | 832 nM
10 | Cc1c(-c2ccccn2)nc2c(C#N)cccc2c1Nc1cc(N2CCOCC2)cnc1N1CCOCC1 [4-((2,5-di-4-morpholinyl-3-pyridinyl)amino)-3-methyl-2-(2-pyridinyl)-8-quinolinecarbonitrile] | 54.4 nM
11 | Cc1ccc(-c2nc3cc(F)cc(F)c3c(Nc3cc(N4CCOCC4)cnc3N3CCOCC3)c2C)cc1C [2-(3,4-dimethylphenyl)-N-(2,5-di-4-morpholinyl-3-pyridinyl)-5,7-difluoro-3-methyl-4-quinolinamine] | 101 nM
12 | Cc1c(-c2ccc(OCC3CC3)nc2)nc2cc(F)cc(F)c2c1Nc1cc(N2CCOCC2)cnc1N1CCOCC1 [2-(6-(cyclopropylmethoxy)-3-pyridinyl)-N-(2,5-di-4-morpholinyl-3-pyridinyl)-5,7-difluoro-3-methyl-4-quinolinamine] | 47.6 nM
13 | Cc1ccc(-c2nc3cc(F)cc(F)c3c(Nc3cncc(N4CCOCC4)c3)c2C)nc1 [5,7-difluoro-3-methyl-2-(5-methyl-2-pyridinyl)-N-(5-(4-morpholinyl)-3-pyridinyl)-4-quinolinamine] | 19.1 nM
14 | Cc1ccc(C(=O)N2CCN(c3nc4cc(F)cc(F)c4c(Nc4cncc(N5CCOCC5)c4)c3C)CC2)cn1 [5,7-difluoro-3-methyl-2-(4-((6-methyl-3-pyridinyl)carbonyl)-1-piperazinyl)-N-(5-(4-morpholinyl)-3-pyridinyl)-4-quinolinamine] | 180 nM
15 | Cc1c(-c2ccc(C(F)(F)F)nc2)nc2cc(F)cc(F)c2c1Nc1cc(N2CCOCC2)cnc1N1CCOCC1 [N-(2,5-di-4-morpholinyl-3-pyridinyl)-5,7-difluoro-3-methyl-2-(6-(trifluoromethyl)-3-pyridinyl)-4-quinolinamine] | 23.2 nM
16 | Cc1c(N2CCC[C@@H]2C(=O)O)nc2cc(F)cc(F)c2c1Nc1cncc(N2CCOCC2)c1 [1-(5,7-difluoro-3-methyl-4-((5-(4-morpholinyl)-3-pyridinyl)-amino)-2-quinolinyl)-D-proline] | 59.9 nM
17 | COc1cncc(-c2ncc(N3CCOCC3)cc2N(C(=O)C(F)(F)F)c2c(C)c(-c3ccccn3)nc3cc(F)cc(F)c23)c1 [N-(5,7-difluoro-3-methyl-2-(2-pyridinyl)-4-quinolinyl)-2,2,2-trifluoro-N-(5′-methoxy-5-(4-morpholinyl)-2,3′-bipyridin-3-yl)-acetamide] | 227 nM
18 | Cc1c(N2CCN(C(=O)OCC(C)(C)C)CC2)nc2cc(F)cc(F)c2c1Nc1cncc(N2CCOCC2)c1 [2,2-dimethylpropyl 4-(5,7-difluoro-3-methyl-4-((5-(4-morpholinyl)-3-pyridinyl)amino)-2-quinolinyl)-1-piperazinecarboxylate] | 99 nM
19 | Cc1c(N2CCN(S(C)(=O)=O)[C@H](C)C2)nc2cc(F)cc(F)c2c1Nc1cncc(N2CCOCC2)c1 [5,7-difluoro-3-methyl-2-((3R)-3-methyl-4-(methylsulfonyl)-1-piperazinyl)-N-(5-(4-morpholinyl)-3-pyridinyl)-4-quinolinamine] | 244 nM
20 | Cc1c(N2CCN(C(=O)N(C)C)CC2)nc2cc(F)cc(F)c2c1Nc1cncc(N2CCOCC2)c1 [4-(5,7-difluoro-3-methyl-4-((5-(4-morpholinyl)-3-pyridinyl)-amino)-2-quinolinyl)-N,N-dimethyl-1-piperazinecarboxamide] | 72.5 nM

Next, values leading:

Row | Ki | Structure (SMILES)
21 | 1.76 nM | COc1ccc(-c2ncc(N3CCOCC3)cc2Nc2c(C)c(-c3ccccc3S(C)(=O)=O)nc3cc(F)cc(F)c23)cn1 [N-(5,7-difluoro-3-methyl-2-(2-(methylsulfonyl)phenyl)-4-quinolinyl)-6′-methoxy-5-(4-morpholinyl)-2,3′-bipyridin-3-amine]
22 | 9.18 nM | CCCN1CCN(c2nc3cc(F)cc(F)c3c(Nc3cncc(N4CCOCC4)c3)c2C)CC1=O [4-(5,7-difluoro-3-methyl-4-((5-(4-morpholinyl)-3-pyridinyl)-amino)-2-quinolinyl)-1-propyl-2-piperazinone]
23 | 2.91 nM | Cc1c(-c2cc(F)ccc2S(C)(=O)=O)nc2cc(F)cc(F)c2c1Nc1cncc(N2CCOCC2)c1 [5,7-difluoro-2-(5-fluoro-2-(methylsulfonyl)phenyl)-3-methyl-N-(5-(4-morpholinyl)-3-pyridinyl)-4-quinolinamine]
24 | 15 nM | Cc1c(-c2ccnc(N3CCN(C)CC3)c2)nc2cc(F)cc(F)c2c1Nc1cc(N2CCOCC2)cnc1N1CCOCC1 [N-(2,5-di-4-morpholinyl-3-pyridinyl)-5,7-difluoro-3-methyl-2-(2-(4-methyl-1-piperazinyl)-4-pyridinyl)-4-quinolinamine]
25 | 8.25 nM | Cc1c(-c2cc([N+](=O)[O-])ccc2S(C)(=O)=O)nc2cc(F)ccc2c1Nc1cc(N2CCOCC2)cnc1N1CCOCC1 [N-(2,5-di-4-morpholinyl-3-pyridinyl)-7-fluoro-3-methyl-2-(2-(methylsulfonyl)-5-nitrophenyl)-4-quinolinamine]
26 | 5.98 nM | COc1ccc(-c2ncc(N3CCOCC3)cc2Nc2c(C)c(-c3cc(C)ccn3)nc3cc(F)cc(F)c23)cc1 [5,7-difluoro-N-(2-(4-methoxyphenyl)-5-(4-morpholinyl)-3-pyridinyl)-3-methyl-2-(4-methyl-2-pyridinyl)-4-quinolinamine]
27 | 7.95 nM | Cc1c(-c2cnccn2)nc2cc(F)cc(F)c2c1Nc1cc(N2CCOCC2)cnc1N1CCOCC1 [N-(2,5-di-4-morpholinyl-3-pyridinyl)-5,7-difluoro-3-methyl-2-(2-pyrazinyl)-4-quinolinamine]
28 | 2.18 nM | CC(=O)c1ccc(S(C)(=O)=O)c(-c2nc3cc(F)cc(F)c3c(Nc3cncc(N4CCOCC4)c3)c2C)c1 [1-(3-(5,7-difluoro-3-methyl-4-((5-(4-morpholinyl)-3-pyridinyl)-amino)-2-quinolinyl)-4-(methylsulfonyl)phenyl)ethanone]
29 | 7.65 nM | Cc1c(-c2ccccn2)nc2cc(F)cc(F)c2c1Nc1cc(N2CCOCC2)ccc1C1=CCOCC1 [N-(2-(3,6-dihydro-2H-pyran-4-yl)-5-(4-morpholinyl)phenyl)-5,7-difluoro-3-methyl-2-(2-pyridinyl)-4-quinolinamine]
30 | 10.4 nM | CNC(=O)[C@H]1CCCN1c1nc2cc(F)cc(F)c2c(Nc2cncc(N3CCOCC3)c2)c1C [1-(5,7-difluoro-3-methyl-4-((5-(4-morpholinyl)-3-pyridinyl)-amino)-2-quinolinyl)-N-methyl-D-prolinamide]
31 | 2.85 nM | Cc1c(-c2ccccn2)nc2c(Cl)c(F)cc(F)c2c1Nc1cc(N2CCOCC2)cnc1N1CCOCC1 [8-chloro-N-(2,5-di-4-morpholinyl-3-pyridinyl)-5,7-difluoro-3-methyl-2-(2-pyridinyl)-4-quinolinamine]
32 | 6.22 nM | Cc1c(-c2ccccc2F)nc2cc(F)cc(F)c2c1Nc1cc(N2CCOCC2)cnc1N1CCOCC1 [N-(2,5-di-4-morpholinyl-3-pyridinyl)-5,7-difluoro-2-(2-fluorophenyl)-3-methyl-4-quinolinamine]
33 | 8.53 nM | COc1ccccc1-c1ncc(N2CCOCC2)cc1Nc1c(C)c(-c2ccccn2)nc2cc(F)cc(F)c12 [5,7-difluoro-N-(2-(2-methoxyphenyl)-5-(4-morpholinyl)-3-pyridinyl)-3-methyl-2-(2-pyridinyl)-4-quinolinamine]
34 | 7.68 nM | COc1cnccc1-c1ncc(N2CCOCC2)cc1Nc1c(C)c(-c2ccccn2)nc2cc(F)cc(F)c12 [N-(5,7-difluoro-3-methyl-2-(2-pyridinyl)-4-quinolinyl)-3′-methoxy-5-(4-morpholinyl)-2,4′-bipyridin-3-amine]
